Columns and labels:
[1] = test system: CTP:phosphocholine cytidylyltransferase (CCT); test: CCT assay in homogenates of treated hippocampal neurons; type: cell-based, rat; conditions: 50 μM PDMP
Description: (§1) Neurons from individual cover slips were washed twice with ice-cold phosphate-buffered saline, and cells removed by scraping into 300 μl of buffer containing 50 mM imidazole, 2 mM EDTA, 150 mM KCl, 6 mM ADP, 0.2 mM phenylmethylsulfonylfluoride, 1 μg/ml pepstatin and 1 μg/ml leupeptin. After brief sonication, an aliquot was removed for DNA determination and 100 μl was used for the CCT assay.
CCT was assayed as described (Weinhold P A and Feldman D A. 1992. Choline-phosphate cytidylyltransferase. Methods Enzymol. 209, 248-258), with some minor modifications. The assay was performed in a final volume of 200 μl containing 1.6 mM phosphorylcholine/0.25 μCi [^14C]methyl phosphorylcholine, 3 mM CTP, 12 mM magnesium acetate, and DOPC liposomes with or without oleic acid and GicCer or GalCer, as indicated in the figure legends. Liposomes were prepared by sonicating resuspended lipids in the assay buffer at room temperature for 3 min using a sonicator (Sonics & Materials Inc., Newtown, Conn.) fitted with a micro-tip probe set to 750 W output, using 25% of the maximal amplitude and with pulsations of 9.0 sec every 9.2 sec, which gave a translucent liposome preparation with no precipitates. The final concentration of DOPC and oleic acid in the liposomes was 500 μM each. […]

rat hippocampal neurons = conditions: 50 μM PDMP; cited from earlier work
[2] = test system: CTP:phosphocholine cytidylyltransferase (CCT); test: CCT assay in hippocampal neuron homogenates with substance added to the assay mixture; type: biochemical, rat; conditions: 0.5 mM DOPC/0.5 mM oleic acid/0.3 mM sphingolipid or lyso-sphingolipid; 8-day-old neurons
Description: as §1
(§2) CCT was assayed as described (Weinhold P A and Feldman D A. 1992. Choline-phosphate cytidylyltransferase. Methods Enzymol. 209, 248-258), with some minor modifications. The assay was performed in a final volume of 200 μl containing 1.6 mM phosphorylcholine/0.25 μCi [^14C]methyl phosphorylcholine, 3 mM CTP, 12 mM magnesium acetate, and DOPC liposomes with or without oleic acid and GicCer or GalCer, as indicated in the figure legends. Liposomes were prepared by sonicating resuspended lipids in the assay buffer at room temperature for 3 min using a sonicator (Sonics & Materials Inc., Newtown, Conn.) fitted with a micro-tip probe set to 750 W output, using 25% of the maximal amplitude and with pulsations of 9.0 sec every 9.2 sec, which gave a translucent liposome preparation with no precipitates. The final concentration of DOPC and oleic acid in the liposomes was 500 μM each. The reaction was terminated after 25 min at 37° C. by addition of 200 μl of 150 mM phosphorylcholine in 10% trichloroacetic acid. CDP-choline was recovered by addition of 2 ml of 6% charcoal in water (w/v). After 30 min at room temperature the charcoal suspension was washed 4 times with water and centrifuged at 1,000 gav for 10 min. The aqueous supernatants were removed and CDP-choline was eluted from the charcoal with 3 washes of water/ethanol/28% NH4OH (116:188:11, v/v/v). Eluates were pooled and evaporated to dryness under N2. Phosphorylcholine and CDP-choline were added to the tubes and the samples separated by TLC using 0.9% NaCl/methanol/28% NE4OH (50:70:5, v/v/v) as the developing solvent. Metabolites were identified by iodine, and the CDP-choline spot was scraped into scintillation vials for scintillation counting.
CCT activity was assayed in homogenates prepared from 8-day-old normal rat hippocampal neurons as described herein above. The reaction mixture comprised 0.5 mM DOPC/0.5 mM oleic acid/0.3 mM sphingolipid or lyso-sphingolipid. CCT activity with each sphingolipid or lyso-sphingolipid was measured twice. Basal CCT activity differed by ˜20% between the two experiments; however, the extent of activation or inhibition of CT activity was similar for each sphingolipid and lyso-sphingolipid.

[3] = test system: CTP:phosphocholine cytidylyltransferase (CCT); test: CCT assay in rat brain cortical homogenates with liposomes; type: biochemical
Description: as §2
When CCT was assayed in rat or mouse brain cortical homogenates (1 g tissue/12.5 ml of buffer), the homogenate was first centrifuged (200 gav, 20 min) to remove cell debris. The homogenate was diluted with assay buffer to give a final concentration of 200 μg protein/ml. CCT activity was also assayed using purified rat brain CCT (see below).

purified rat brain CCT = test: CCT assay with purified rat brain CCT and liposomes; type: biochemical
Description: as §2
Rat brain CCT was purified by a method similar to that described for rat liver (Weinhold and Feldman, supra; Weinhold P A Rounsifer M E and Feldman D A. 1986. The purification and characterization of CTP:phosphorylcholine cytidylyltransferase from rat liver. J Biol Chem 261:5104-5110). Rat brains (11 g) were isolated from 8-10-week old rats and homogenized in 51 ml of buffer A (50 mM Tris-HCl pH 7.4, 150 mM NaCl, 1 mM EDTA, 2 mM dithiothreitol, 0.025% (w/v) sodium azide, 1 mM phenylmethylsulfonylfluoride). Brain cytosol was prepared by collecting the supernatants obtained after two sequential centrifugation steps at 10,000 gav for 20 min, and 100,000 gav for 1 h. The protein concentration of the cytosol was adjusted to 6 mg/ml with buffer A, egg yolk PC/oleic acid liposomes were added, followed by acid precipitation. The precipitate was re-suspended in 54 ml of buffer A containing 20 mM n-octyl-β-D-glucopyranoside and 1 mM phenylmethylsulfonylfluoride for 30 min at room temperature. After centrifugation (10,000 gav, 20 min), the n-octyl-β-D-glucopyranoside extract was loaded onto a DEAE-sepharose CL-6B column that had been previously packed and equilibrated with 300 ml of buffer A. All elution procedures were performed using a flow rate of 40 ml/h. The column was successively washed with 100 ml of buffer A, 300 ml of a gradient of 150 mM to 300 mM NaCl in buffer B (50 mM Tris-HCl pH 7.4, 1 mM EDTA, 2 mM dithiothreitol, 0.025% (w/v) sodium azide), and 150 ml of buffer B containing 300 mM NaCl. CCT was eluted with 70 ml of buffer B containing 400 mM NaCl and 50 mM n-octyl-β-D-glucopyranoside.
The fractions containing CCT activity were pooled, diluted with 4 volumes of buffer A and loaded onto a HTP gel hydroxyapatite column (BioRad) that had previously been equilibrated with 200 ml of buffer A. Elutions were performed at flow rates of 20 ml/hour. […]

[4] = test system: CTP:phosphocholine cytidylyltransferase (CCT); test: CCT assay in rat brain cortical homogenates with liposomes; type: biochemical; conditions: DOPC liposomes, 200 μM; for CCT activity: 8.9±1.0 without lipid
[5] = liposomes of DOPC and oleic acid

Compound | effect on CCT activity [2] | effect of exogenously-added lipid on CCT activity [3] | further results
CCCCCCCCCC(=O)N[C@H](CN1CCOCC1)[C@H](O)c1ccccc1 [PDMP, D-threo-1-phenyl-2-decanoyl-amino-3-morpholino-1-propanol] |  |  | CCT activity after treatment of neurons [1]: significant reduction; rate of axonal growth (rat hippocampal neurons): reduction
sphingomyelin [SM] | inhibited | did not increase CCT activity | 
CCCCCCCCCCCCC/C=C/[C@@H](O)[C@@H](N)COP(=O)([O-])OCC[N+](C)(C)C [lysosphingomyelin] | inhibited |  | 
CCCCCCCC/C=C\CCCCCCCC(=O)O [oleic acid] |  |  | CCT activity in DOPC/oleic acid liposomes versus DOPC liposomes alone (purified rat brain CCT; DOPC/oleic acid liposomes): ~10 fold
glucosylceramide [GlcCer] | activated |  | increase in the rate of CDP-choline synthesis [4]: > 2 fold; effect on CCT activity [3, 5]: increased CCT activity; activation of CCT at the lowest concentration (purified rat brain CCT; DOPC liposomes, 2.5 mole percent): significant activation; maximal activation of CCT (purified rat brain CCT; DOPC liposomes, 10 mole percent): 3-4 fold; effect on CCT activity (purified rat brain CCT; DOPC/oleic acid liposomes): small but significant increase
CCCCCCCCCCCCCC=CC(O)C(COC1OC(CO)C(O)C(O)C1O)NC(=O)CCCCCCC (centres unmarked) [C8-GalCer] |  |  | CCT activity [4]: 9.1±0.8 nmol/min/mg of protein
galactosylceramide [GalCer] | no significant effect |  | effect on CCT activity ([3]; DOPC liposomes): did not affect; effect on CCT activity [3, 5]: had no effect; effect on purified CCT (purified rat brain CCT; DOPC liposomes): no significant effect; effect on CCT activity (purified rat brain CCT; DOPC/oleic acid liposomes): no significant effect
CCCCCCCCCCCCC/C=C/[C@@H](O)[C@H](COC1OC(CO)C(O)C(O)C1O)NC(=O)CCCCCCC (some centres unmarked) [C8-GlcCer] |  |  | CCT activity [4]: 25.9±4.4 nmol/min/mg of protein

Continued, in another order:

effect on CCT activity [2] | effect of exogenously-added lipid on CCT activity [3] | Compound | further results
No significant effect | no elevation of activity | CCCCCCCCCCCCC/C=C/[C@@H](O)[C@@H](N)CO[C@@H]1O[C@H](CO)[C@H](O)[C@H](O)[C@H]1O [galactosylsphingosine] | 
inhibited |  | CCCCCCCCCCCCC/C=C/[C@@H](O)[C@@H](N)CO [sphingosine] | 
inhibited | did not increase CCT activity | lactosylceramide | 
inhibited | did not increase CCT activity | ceramide | 
No significant effect | no elevation of activity | CCCCCCCCCCCCC/C=C/[C@@H](O)[C@@H](N)CO[C@@H]1O[C@H](CO)[C@@H](O)[C@H](O)[C@H]1O [glucosylsphingosine] | 
inhibited |  | CCCCCCCCCCCCC/C=C/[C@@H](O)C(N)CO[C@H]1O[C@H](CO)[C@@H](O[C@@H]2O[C@H](CO)[C@H](O)[C@H](O)[C@H]2O)[C@H](O)[C@@H]1O (some centres unmarked) [lactosylsphingosine] | 

From patent publication US7429460B2, “Methods of screening for inhibitors of phospholipid synthesis related to glycolipid-storage diseases” (Yeda Research and Development Co., Ltd., priority 2003, dated 2008)
